From patent US20090137577A1, “HETEROCYCLIC COMPOUNDS” (Pfizer Inc., priority 2007, published 2009)
pEC50: −log10 of the molar value.

Each compound was assayed against T1, mGluR2 receptor (metabotropic glutamate receptor 2) (Homo sapiens, UniProt Q14416) (assay: mGluR2 potentiator screen (FLIPR, EC10-EC20 glutamate challenge)). Settings: geometric mean; read-out: mGluR 2 EC50 (geometric mean).
T1 construct: expressed in transfected cells
Type: cell-based
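Note: HEK cells stably expressing human mGluR2 with GL15 G protein, Fluo-4 calcium fluorescence read on FLIPR, compounds added before an EC10-EC20 glutamate challenge to detect potentiation.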

T1 sequence (Q14416 19-872, species assumed): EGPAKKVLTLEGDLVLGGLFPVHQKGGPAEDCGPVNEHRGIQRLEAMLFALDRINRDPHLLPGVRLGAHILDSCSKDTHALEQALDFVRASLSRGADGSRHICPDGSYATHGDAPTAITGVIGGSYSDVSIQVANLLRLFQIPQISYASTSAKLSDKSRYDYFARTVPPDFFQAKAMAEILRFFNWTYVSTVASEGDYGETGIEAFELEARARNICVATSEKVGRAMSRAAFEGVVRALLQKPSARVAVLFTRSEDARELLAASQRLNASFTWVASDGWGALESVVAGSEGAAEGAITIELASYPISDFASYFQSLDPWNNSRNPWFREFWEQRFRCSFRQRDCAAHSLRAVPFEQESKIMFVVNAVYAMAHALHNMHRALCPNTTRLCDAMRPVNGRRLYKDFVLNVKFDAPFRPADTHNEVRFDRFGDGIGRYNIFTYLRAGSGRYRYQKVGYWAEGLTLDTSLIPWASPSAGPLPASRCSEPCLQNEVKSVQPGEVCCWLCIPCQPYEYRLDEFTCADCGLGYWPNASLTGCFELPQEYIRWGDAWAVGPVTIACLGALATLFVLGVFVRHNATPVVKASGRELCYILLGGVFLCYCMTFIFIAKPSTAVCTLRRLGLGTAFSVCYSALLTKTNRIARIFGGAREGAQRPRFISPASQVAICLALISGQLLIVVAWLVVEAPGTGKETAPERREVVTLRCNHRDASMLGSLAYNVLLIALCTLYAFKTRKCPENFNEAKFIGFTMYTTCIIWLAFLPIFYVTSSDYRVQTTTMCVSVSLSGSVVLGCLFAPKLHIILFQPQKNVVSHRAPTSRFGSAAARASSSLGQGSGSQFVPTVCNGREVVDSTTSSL

Row | Compound | pEC50
1 | O=C1OC[C@@H]2CCCC[C@@H]2N1Cc1ccc(OCc2ccccc2)cc1 [Example 4] | 6.19
2 | CC1CN(Cc2ccc(OCc3cc(F)cc(F)c3)cc2)C(=O)O1 (stereo not drawn) [Example 91] | 6.82
3 | C[C@@H]1CN(Cc2ccc(-c3cccc4cnccc34)cc2)C(=O)O1 [Example 162] | 7.38
4 | COc1cc(COc2ccc(CN3CC(C)OC3=O)cc2)ccc1C (stereo not drawn) [Example 146] | 5.95
5 | C[C@@H]1CN(Cc2ccc(-c3ccccc3OC(F)(F)F)cc2)C(=O)O1 [Example 164] | > 8.14
6 | COc1ccc(F)cc1-c1ccc(CN2C[C@@H](C)OC2=O)cn1 [Example 267] | 5.94
7 | CC(Oc1ccc(CN2CC(C)(C)COC2=O)cc1)C1CCCCC1 (stereo not drawn) [Example 47] | 6.61
8 | C[C@@H]1CN(Cc2ccc(NCC3CCCCC3)nc2)C(=O)O1 [Example 283, (5R)-3-({6-[(Cyclohexylmethyl)amino]pyridin-3-yl}methyl)-5-methyl-1,3-oxazolidin-2-one] | 5.89
9 | C[C@@H]1CN(Cc2ccc(-c3ccc(C(F)(F)F)cc3Cl)nc2)C(=O)O1 [Example 268] | 6.99
10 | CC(Oc1ccc(CN2CCN(CC3CCCC3)CC2=O)cc1)C1CCCCC1 (stereo not drawn) [Example 202] | 6.54
11 | C[C@H]1[C@@H](c2ccccc2)OC(=O)N1Cc1ccc(OCc2ccccc2)cc1 [Example 29] | 6.33
12 | COc1ccc(F)cc1-c1ccc(CN2C[C@@H](C)OC2=O)cc1 [Example 166] | 7.61
13 | C[C@@H]1CN(Cc2ccc(-c3ccc(OC(F)F)cc3)nc2)C(=O)O1 [Example 313] | 6.27
14 | Cc1onc(-c2ccccc2)c1COc1ccc(CN2CC(C)OC2=O)cc1 (stereo not drawn) [Example 132] | 5.78
15 | CN(C)CC1CN(Cc2ccc(-c3ccc(F)cc3F)cc2)C(=O)O1 (stereo not drawn) [Example 307, 3-[(2′,4′-difluorobiphenyl-4-yl)methyl]-5-[(dimethylamino)methyl]-1,3-oxazolidin-2-one] | 5.87
16 | CC(Oc1ccc(CN2CC(C)(C)COC2=O)cc1)c1ccccc1 (stereo not drawn) [Example 45] | 6.67
17 | C[C@H]1[C@@H](c2ccccc2)OC(=O)N1Cc1ccc(OCc2cccnc2)cc1 [Example 32] | 6.61

Row | Compound | pEC50
18 | C[C@@H]1CN(Cc2ccc(-c3cccc(Cl)c3F)c(F)c2)C(=O)O1 [Example 291, (5R)-3-[(3′-chloro-2,2′-difluorobiphenyl-4-yl)methyl]-5-methyl-1,3-oxazolidin-2-one] | 7.22
19 | CC1CN(Cc2ccc(OCC3(C)CC3)cc2)C(=O)O1 (stereo not drawn) [Example 95] | 6.14
20 | CC1CN(Cc2ccc(OCc3cccc(Cl)c3)cc2)C(=O)O1 (stereo not drawn) [Example 108] | 7.04
21 | CCCN1CCN(Cc2ccc(OC(C)C3CCCCC3)cc2)C(=O)C1 (stereo not drawn) [Example 215] | 6.36
22 | C[C@H]1CN(Cc2ccc(O[C@H](C)c3ccccc3)cc2)C(=O)O1 [Example 68] | 6.52
23 | CC1CN(Cc2ccc(OC3Cc4ccccc4C3)cc2)C(=O)O1 (stereo not drawn) [Example 126] | 7.08
24 | CCCOc1ccc(CN2CC(c3ccccc3)OC2=O)cc1 (stereo not drawn) [Example 3] | 6.44
25 | CC1CN(Cc2ccc(OCCOc3ccccc3)cc2)C(=O)O1 (stereo not drawn) [Example 121] | 6.36
26 | CCC(C)CCOc1ccc(CN2C[C@@H](C)OC2=O)cc1 (stereo partly drawn) [Example 212] | 7.11
27 | C[C@H](Oc1ccc(CN2C[C@H](C)OC2=O)cc1)c1ccccc1 [Example 70] | 6.68
28 | CC(C)CCOc1ccc(CN2CC(C)OC2=O)cc1 (stereo not drawn) [Example 143] | 7.12
29 | Cc1ccccc1-c1ccc(CN2C[C@@H](C)OC2=O)cc1 [Example 180] | 7.28
30 | COc1ccc(F)c(-c2ccc(CN3C[C@@H](C)OC3=O)cc2)c1 [Example 240] | 6.92
31 | CC1CN(Cc2ccc(OC3CCc4ccccc43)cc2)C(=O)O1 (stereo not drawn) [Example 140] | 7.07
32 | C[C@@H]1CN(Cc2ccc(-c3cccc(C#N)c3)cc2)C(=O)O1 [Example 85] | 6.30
33 | C[C@@H]1CN(Cc2ccc(-c3nc(C(C)(C)C)cs3)cc2)C(=O)O1 [Example 183] | 6.82

The remaining lines, values ahead:

Row | pEC50 | Compound
34 | 6.09 | CC(=O)c1ccccc1-c1ccc(CN2C[C@@H](C)OC2=O)cc1 [Example 175]
35 | 6.12 | C[C@@H]1CN(Cc2ccc(OCCCOc3ccc(F)cc3)nc2)C(=O)O1 [Example 229, (5R)-3-({6-[3-(4-fluorophenoxy)propoxy]pyridin-3-yl}methyl)-5-methyl-1,3-oxazolidin-2-one]
36 | 7.17 | Cc1ccc(F)cc1COc1ccc(CN2C[C@@H](C)OC2=O)cc1 [Example 205]
37 | > 7.67 | CC(Oc1ccc(CN2C[C@@H](C)OC2=O)cc1F)C1CCCCC1 (stereo partly drawn) [Example 230, (5R)-3-[4-(1-Cyclohexylethoxy)-3-fluorobenzyl]-5-methyl-1,3-oxazolidin-2-one]
38 | 7.53 | C[C@@H]1CN(Cc2ccc(-c3ccc(C(F)(F)F)cc3F)cc2F)C(=O)O1 [Example 252]
39 | > 7.83 | CC1CN(Cc2ccc(OCCC(C)(C)C)cc2)C(=O)O1 (stereo not drawn) [Example 96]
40 | 7.86 | Cc1cc(F)ccc1-c1ccc(CN2C[C@@H](C)OC2=O)cc1 [Example 159]
41 | 6.20 | CC(C)COc1ccc(CN2C(=O)OC[C@H]3CCCC[C@H]32)cc1 [Example 2]
42 | 6.08 | CC1CN(Cc2ccc(OCc3nc4ccccc4n3C(C)C)cc2)C(=O)O1 (stereo not drawn) [Example 97]
43 | > 7.41 | Cc1ccc(-c2ccc(CN3C[C@@H](C)OC3=O)cc2)c(F)c1 [Example 232]
44 | 7.70 | C[C@@H]1CN(Cc2ccc(OCCC(C)(C)C)cc2)C(=O)O1 [Example 213]
45 | 6.66 | COc1cccc(COc2ccc(CN3CC(C)OC3=O)cc2)c1 (stereo not drawn) [Example 103]
46 | 6.32 | Cc1cc(-c2ccc(CN3C[C@@H](C)OC3=O)cn2)ccc1F [Example 271]
47 | 6.81 | CC1CN(Cc2ccc(OCc3cccc(C#N)c3)cc2)C(=O)O1 (stereo not drawn) [Example 129]
48 | 7.05 | COc1ccccc1COc1ccc(CN2CC(C)OC2=O)cc1 (stereo not drawn) [Example 118]
49 | 6.95 | C[C@@H]1CN(Cc2ccc(-c3cc(Cl)cc(Cl)c3)cc2)C(=O)O1 [Example 187, (5R)-3-[(3′,5′-dichlorobiphenyl-4-yl)methyl]-5-methyl-1,3-oxazolidin-2-one]
50 | > 7.60 | COc1ccc(F)c(F)c1-c1ccc(CN2C[C@@H](C)OC2=O)cc1 [Example 243]
51 | 7.07 | CC1CN(Cc2ccc(O[C@@H](C)c3ccccc3)cc2)C(=O)O1 (stereo partly drawn) [Example 144]
52 | 5.91 | O=C1OCCCN1Cc1ccc(OCC2CCC2)cc1 [Example 28]
53 | 6.87 | COc1c(-c2ccc(F)cc2)ccc(CN2C[C@@H](C)OC2=O)c1F [Example 253]
54 | 6.40 | O=C1OC(c2ccccc2)CN1Cc1ccc(OCCC2CCCCC2)cc1 (stereo not drawn) [Example 10]
55 | 6.37 | C[C@@H]1CN(Cc2ccc(-c3ccc(Cl)cc3F)nc2)C(=O)O1 [Example 210, (5R)-3-{[6-(4-Chloro-2-fluorophenyl)pyridin-3-yl]methyl}-5-methyl-1,3-oxazolidin-2-one]
56 | 6.11 | CCC(CC)Oc1ccc(CN2CC(C)OC2=O)cc1 (stereo not drawn) [Example 136]
57 | 7.13 | CC1CN(Cc2ccc(OCc3c(F)cccc3F)cc2)C(=O)O1 (stereo not drawn) [Example 106]
58 | 7.38 | CCC1CN(Cc2ccc(-c3ccc(F)cc3F)cc2)C(=O)O1 (stereo not drawn) [Example 315]
59 | 6.33 | Cc1ccc(CN2CCN(Cc3ccc(OC(C)C4CCCCC4)cc3)C(=O)C2)cc1 (stereo not drawn) [Example 216]
60 | 6.82 | CC(C)COc1ccc(CN2CC(c3ccccc3)OC2=O)cc1 (stereo not drawn) [Example 6]
